The values that follow come from patent publication EP2197879B1, “C7-SUBSTITUTED CAMPTOTHECIN ANALOGS” (priority 2007, dated 2009).

Series [1] concerns advanced malignant melanoma. Conditions: 90-360 mg/m^2 repeated every 2 weeks; fifteen patients; cited from earlier work.
For series [2] the following is noted: cited from earlier work; for No. of Patients With Cystitis / No. of Patients With Diarrhea: 5-day Course; for Number of Patients with Cystitis / Number of Patients with Diarrhea: Single-Dose Method.
Series [3] concerns advanced gastrointestinal cancer. Conditions: cited from earlier work.
For series [4] the following is noted: cited from earlier work.
For series [5] the following is noted: closed E-ring lactone form; drug dissolving in 1 mL of water; cited from earlier work.
For the next series, the system named is angiogenesis. The note with it: dose levels of 210 mg/kg; cited from earlier work.
The conditions of series [6]: clinical studies in Japan alone; cited from earlier work.
Series [7] deals with panel of over 20 human cancer cell lines. Description: In vitro antitumor potency on a panel of human cancer cell lines. The note with it: compared with Topotecan or SN-38.
The conditions of series [8]: cited from earlier work. The source holds these as a separate data set.
The mark [9] stands for this setting: 5-Day Course (27 Patients Total), 4 wks.
Where [10] appears, read: 5-Day Course (27 Patients Total), 8 wks.
Setting [11] is: 5-Day Course (27 Patients Total), 12 wks.
[12] abbreviates: Single-Dose Method (34 Patients Total), 3 wks.
The mark [13] stands for this setting: Single-Dose Method (34 Patients Total), 6 wks.
Where [14] appears, read: Single-Dose Method (34 Patients Total), 9 wks.
Setting [15] is: Single-Dose Method (34 Patients Total), 12 wks.

Read-outs that look alike come from different tables or passages of the source.

Consider `CC[C@@]1(O)C(=O)OCc2c1cc1n(c2=O)Cc2cc3ccccc3nc2-1` [CPT sodium], for which the “patients with a 50% or greater decrease in tumor diameter” value in series [1] is recorded as “None”. The “patients with less pronounced transient tumor regression” value in series [1] is given as “three”. The patients with myelosuppression in [1] is reported as 11. In addition, the results for the Cystitis in [2] (5-Day Course) and in series [2] (Single Dose) were 48 (P<0.05) % of 27 Patients and 24 % of 34 Patients, respectively. In addition, the “No. of Patients With Cystitis” value in series [2] (11 mg/m^2 X 5) is recorded as 1; in [2] (15 mg/m^2 X 5), 4; in series [2] (17 mg/m^2 X 5), 2; in [2] (20 mg/m^2 X 5) it was 6. In addition, the “No. of Patients With Diarrhea” value is on record as 1 in [2] (15 mg/m^2 X 5), 4 in series [2] (17 mg/m^2 X 5), 4 in series [2] (20 mg/m^2 X 5) and 1 in series [2] (22 mg/m^2 X 5). Also, the “Number of Patients with Cystitis” value in [2] (100 mg/m^2) was 2; in series [2] (110 mg/m^2), 1; in series [2] (120 mg/m^2) it was 2; in [2] (180 mg/m^2), 3. Besides, the “Number of Patients with Diarrhea” value is on record as 1 in [2] (110 mg/m^2), 4 in series [2] (120 mg/m^2) and 2 in series [2] (180 mg/m^2). Moreover, the “Objective Results: Improved” value is reported as 1 in series [3] (setting [9]), 4 in series [3] (setting [12]), 2 in [3] (setting [13]) and 2 in [3] (setting [14]). In addition, the “Objective Results: Stable” value in [3] (setting [9]) is 12; in series [3] (setting [10]) it was 7; in [3] (setting [11]), 6; in [3] (setting [12]), 17; in series [3] (setting [13]), 11; in [3] (setting [14]) it was 8. In series [3] (setting [15]), the “Objective Results: Stable” value was 6. Also, the “Objective Results: Worse” value in [3] (setting [9]) is reported as 14; in [3] (setting [10]) it was 20; in [3] (setting [11]), 21; in [3] (setting [12]) it was 13; in [3] (setting [13]), 21; in [3] (setting [14]) it was 24. Further, the “Objective Results: Worse” value in series [3] (setting [15]) is reported as 28. Besides, the “patients with partial objective improvement” value in series [3] (after 2 months (8 or 9 weeks), of 61 patients) is recorded as “two”. The patients with improvement entry in series [3] (at 3 months, of 61 patients) was “none”. Also, the “patients who showed a 25%-50% response” value in series [3] (at 3 wks, only) was “*A total of 3 patients showed a 25%-50% response at 3 wks, only”. For the same molecule, in series [4] (doses of 20 to 30 mg/m^2), the “patients with dose limiting bladder toxicity” value is reported as “three”. In [4] (doses of 30 and 44 mg/m^2), the “additional patients with bladder toxicity” value is “two”. In addition, the clinical benefit result in series [4] (eight patients with measurable disease, 5-day courses) is “No clinical benefit”.
`CC[C@@]1(O)C(=O)OCc2c1cc1n(c2=O)Cc2cc3ccccc3nc2-1` [CPT, (S)-4-Ethyl-4-hydroxy-1 H-pyrano[3',4':6,7]indolizino[1,2-b]quinoline-3,14(4H,12H)-dione]: in the series on human plasma proteins (100 nM Compound Concentrations, 48 hours or longer at room temperature), the “Percent of Free Camptothecin Analogs in Human Plasma” value is listed as 0%. Further, the solubility in water result in series [5] was “approximately 0.1 µg”.
For the molecule `CCc1c2c(nc3ccc(OC(=O)N4CCC(N5CCCCC5)CC4)cc13)-c1cc3c(c(=O)n1C2)COC(=O)[C@]3(O)CC` [CPT-11, 7-ethyl-10-[4-(1-piperidino)-1-piperidino] carbonyloxy camptothecin], in the series on angiogenesis, the neovascularization result is listed as “significant reduction of neovascularization”. Further, in series [6], the “patient deaths directly attributable to drug toxicity” value was “approximately 100”.
Consider `CC[C@@]1(O)C(=O)OCc2c1cc1n(c2=O)Cc2c-1nc1ccccc1c2CC[Si](C)(C)C` [Karenitecin, (4S)-4-ethyl-4-hydroxy-11-[2-(trimethylsilyl)ethyl]-1H-pyrano[3':4':6,7]indolizino[1,2-b]quinoline-3,14(4H,12H)-dione], for which, in the series with human plasma proteins, the “Percent of Free Camptothecin Analogs in Human Plasma” value is given as 1.2% and the protein-bound was 98-99%. In addition, the antitumor potency entry in [7] is “significantly more potent”.
As to `CC[C@@](O)(C(=O)O)c1cc2n(c(=O)c1CO)Cc1cc3ccccc3nc1-2` [carboxylate form of CPT], in series [8] (carboxylate form from sodium hydroxide formulation), the “anti-tumor potency relative to the original, non-hydrolyzed lactone form” value is recorded as “approximately one-tenth or less”. The anti-tumor activity reduced entry in series [8] (carboxylate form versus lactone) is given as “at least 10 fold”.
